Data on one compound can be found in ChEMBL document CHEMBL1135834, “First non-ATP competitive glycogen synthase kinase 3 beta (GSK-3beta) inhibitors: thiadiazolidinones (TDZD) as potential drugs for the treatment of Alzheimer's disease” (J Med Chem, 2002).

By IC50 is commonly meant the concentration that inhibits the measured activity by half. High values mean weaker potency in that assay, low ones greater potency in that assay.

In test [1] the target is Cyclin-dependent kinase 1/cyclin B (Homo sapiens) (UniProt P06493+P14635+Q8WWL7+O95067). Nature of the test: Specific activity against Cyclin dependent kinase 1-cyclin B. In kind it is protein-complex assay.
For test [2], the target named is Casein kinase II (Homo sapiens) (UniProt P67870+P68400+P19784). Nature of the test: Specific activity against Casein kinase II (CK II). In kind it is protein-complex assay. To be noted: Bos taurus.
Test [3] in a line: Inhibition of catalytic subunit of protein kinase A (PKA) from bovine heart. Also noted: species or system Bos taurus.
Test [4] deals with Cyclin-dependent kinase 1/cyclin B (Homo sapiens, UniProt P06493). In words: Inhibition of Cyclin dependent kinase 1-cyclinB. The test is classed as protein-complex assay.
The species named for another test is Bos taurus. In words: Specific activity against Protein kinase A (PKA) from bovine heart.

On to `Cn1sc(=O)n(Cc2ccccc2)c1=O`, for which the Specific activity (nM Pi min-1 (mg of protein)-1) in test [1] came out at 0.4; in the test filed under Bos taurus it was 4. In test [2], the Specific activity (uM Pi/min/mg protein) was 0.4. Besides, the IC50 in test [3] and in test [4] was greater than 100 µM throughout.
